pIC50: −log10 of the molar value.
Target: human truncated cGAS enzyme (147-522 human cGAS) (Homo sapiens (Human), UniProt Q8N884)
Experiment: Quantification of cGAS protein inhibition (cGAMP formation measured by LC-MS/MS)
Assay type: biochemical
Procedure, shortened: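 Human cGAS 147-522 (30 nM) in Tris pH 7.5, NaCl, MgCl2, ZnCl2, Tween 20, started with 5 μM ISD 45 bp dsDNA, 0.5 mM GTP and 0.5 mM ATP. Incubated 1 h at room temperature, then quenched with acetonitrile/TFA. cGAMP quantified by LC-MS/MS against a labelled cGAMP internal standard; IC50 from ratio versus compound concentration.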

[1] = reported for the potential mixture of co-existing tautomers and/or racemates
[2] = reported for the potential mixture in solution of co-existing tautomers and/or racemates

Sequence of human truncated cGAS enzyme (147-522 human cGAS) (Q8N884 147-522): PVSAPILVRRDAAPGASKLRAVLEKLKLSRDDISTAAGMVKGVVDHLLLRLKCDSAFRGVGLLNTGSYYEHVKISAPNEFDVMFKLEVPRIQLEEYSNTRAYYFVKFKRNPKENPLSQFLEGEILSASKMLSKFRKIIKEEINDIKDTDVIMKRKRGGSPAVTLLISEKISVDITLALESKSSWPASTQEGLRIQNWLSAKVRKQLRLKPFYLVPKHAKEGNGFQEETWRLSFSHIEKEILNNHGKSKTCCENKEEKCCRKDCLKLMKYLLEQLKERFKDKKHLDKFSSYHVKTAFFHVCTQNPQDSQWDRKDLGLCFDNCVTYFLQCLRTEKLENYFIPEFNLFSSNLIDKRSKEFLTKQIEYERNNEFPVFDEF

Row | Structure (SMILES) | pIC50 [1] | pIC50 [2]
1 | COc1cc2c(-c3cn[nH]c3)c(-c3nnc(C(C)C#N)[nH]3)n(C)c2c(F)c1Cl (centres unmarked) [Example 82, 2-(5-(6-Chloro-7-fluoro-5-methoxy-1-methyl-3-(1H-pyrazol-4-yl)-1H-indol-2-yl)-4H-1,2,4-triazol-3-yl)propanenitrile] | 7.52 | 
2 | COC[C@@H](O)c1nnc(-c2c(-n3ccnc3)c3cc(OC)c(Cl)c(F)c3n2C)[nH]1 [Example 83, (S)-1-(5-(6-chloro-7-fluoro-3-(1H-imidazol-1-yl)-5-methoxy-1-methyl-1H-indol-2-yl)-4H-1,2,4-triazol-3-yl)-2-methoxyethan-1-ol] | 7.11 | 
3 | COCC(O)c1nnc(-c2c(-n3ccnc3)c3cc(OC)c(Cl)c(F)c3n2C)[nH]1 (centres unmarked) [Example 83a, 1-(5-(6-chloro-7-fluoro-3-(1H-imidazol-1-yl)-5-methoxy-1-methyl-1H-indol-2-yl)-4H-1,2,4-triazol-3-yl)-2-methoxyethan-1-ol] | 7.20 | 
4 | COC[C@H](O)c1nnc(-c2c(-n3ccnc3)c3cc(OC)c(Cl)c(F)c3n2C)[nH]1 [Example 84, (R)-1-(5-(6-chloro-7-fluoro-3-(1H-imidazol-1-yl)-5-methoxy-1-methyl-1H-indol-2-yl)-4H-1,2,4-triazol-3-yl)-2-methoxyethan-1-ol] | 7.20 | 
5 | COc1cc2c(-n3ccnc3)c(-c3nnc(OC(C)C)[nH]3)n(C)c2c(F)c1Cl [Example 85, 6-chloro-7-fluoro-3-(1H-imidazol-1-yl)-2-(5-isopropoxy-4H-1,2,4-triazol-3-yl)-5-methoxy-1-methyl-1H-indole] | 7.04 | 
6 | COc1cc2c(-n3ccnc3)c(-c3nnc(F)[nH]3)n(C)c2c(F)c1Cl [Example 86, 6-chloro-7-fluoro-2-(5-fluoro-4H-1,2,4-triazol-3-yl)-3-(1H-imidazol-1-yl)-5-methoxy-1-methyl-1H-indole] | 6.58 | 
7 | COc1cc2c(-n3ccnc3)c(-c3nnc(F)[nH]3)[nH]c2c(F)c1Cl [Example 87, 6-chloro-7-fluoro-2-(5-fluoro-4H-1,2,4-triazol-3-yl)-3-(1H-imidazol-1-yl)-5-methoxy-1H-indole] | 7.37 | 
8 | COCC(=O)c1nnc(-c2c(-n3ccnc3)c3cc(OC)c(Cl)c(F)c3n2C)[nH]1 [Example 88, 1-(5-(6-chloro-7-fluoro-3-(1H-imidazol-1-yl)-5-methoxy-1-methyl-1H-indol-2-yl)-4H-1,2,4-triazol-3-yl)-2-methoxyethan-1-one] | 7.12 | 
9 | COCC(F)(F)c1nnc(-c2c(-n3ccnc3)c3cc(OC)c(Cl)c(F)c3n2C)[nH]1 [Example 89, 6-chloro-2-(5-(1,1-difluoro-2-methoxyethyl)-4H-1,2,4-triazol-3-yl)-7-fluoro-3-(1H-imidazol-1-yl)-5-methoxy-1-methyl-1H-indole] | 7.40 | 
10 | COc1cc2c(-n3ccnc3)c(-c3nnc(N(C)CCO)[nH]3)n(C)c2c(F)c1Cl [Example 90, 2-((5-(6-chloro-7-fluoro-3-(1H-imidazol-1-yl)-5-methoxy-1-methyl-1H-indol-2-yl)-4H-1,2,4-triazol-3-yl)(methyl)amino)ethan-1-ol] | 7.03 | 
11 | COc1cc2c(-n3ccnc3)c(-c3nnc(N4CC[C@@H](O)C4)[nH]3)n(C)c2c(F)c1Cl [Example 91, (R)-1-(5-(6-chloro-7-fluoro-3-(1H-imidazol-1-yl)-5-methoxy-1-methyl-1H-indol-2-yl)-4H-1,2,4-triazol-3-yl)pyrrolidin-3-ol] | 6.96 | 
12 | COc1cc2c(-n3ccnc3)c(-c3nnc(N4CC[C@H](O)C4)[nH]3)n(C)c2c(F)c1Cl [Example 92, (S)-1-(5-(6-chloro-7-fluoro-3-(1H-imidazol-1-yl)-5-methoxy-1-methyl-1H-indol-2-yl)-4H-1,2,4-triazol-3-yl)pyrrolidin-3-ol] | 7.09 | 
13 | COc1cc2c(-n3ccnc3)c(-c3n[nH]c(C(CO)OC)n3)n(C)c2c(F)c1Cl (centres unmarked) [Example 93, 2-(3-(6-chloro-7-fluoro-3-(1H-imidazol-1-yl)-5-methoxy-1-methyl-1H-indol-2-yl)-1H-1,2,4-triazol-5-yl)-2-methoxyethan-1-ol] | 7.22 | 
14 | COc1cc2c(-n3ccnc3)c(-c3nnc(OCCO)[nH]3)n(C)c2c(F)c1Cl [Example 94, 2-((5-(6-chloro-7-fluoro-3-(1H-imidazol-1-yl)-5-methoxy-1-methyl-1H-indol-2-yl)-4H-1,2,4-triazol-3-yl)oxy)ethan-1-ol] | 7.14 | 
15 | COc1cc2c(-n3ccnc3)c(-c3nnc(C(F)(F)CO)[nH]3)n(C)c2c(F)c1Cl [Example 95, 2-(5-(6-chloro-7-fluoro-3-(1H-imidazol-1-yl)-5-methoxy-1-methyl-1H-indol-2-yl)-4H-1,2,4-triazol-3-yl)-2,2-difluoroethan-1-ol] | 7.25 | 
16 | COc1cc2c(-n3ccnc3)c(-c3nnc(C(O)C(F)F)[nH]3)n(C)c2c(F)c1Cl (centres unmarked) [Example 96, 1-(5-(6-chloro-7-fluoro-3-(1H-imidazol-1-yl)-5-methoxy-1-methyl-1H-indol-2-yl)-4H-1,2,4-triazol-3-yl)-2,2-difluoroethan-1-ol] | 7.52 | 

Row | Structure (SMILES) | pIC50 [1] | pIC50 [2]
17 | COc1cc2c(-n3ccnc3)c(-c3nnc(C(O)C(F)(F)F)[nH]3)n(C)c2c(F)c1Cl (centres unmarked) [Example 98, 1-(5-(6-chloro-7-fluoro-3-(1H-imidazol-1-yl)-5-methoxy-1-methyl-1H-indol-2-yl)-4H-1,2,4-triazol-3-yl)-2,2,2-trifluoroethan-1-ol] | 7.43 | 
18 | COc1cc2c(-n3ccnc3)c(-c3nnc(C(OC)C(F)F)[nH]3)n(C)c2c(F)c1Cl (centres unmarked) [Example 99, 6-chloro-2-(5-(2,2-difluoro-1-methoxyethyl)-4H-1,2,4-triazol-3-yl)-7-fluoro-3-(1H-imidazol-1-yl)-5-methoxy-1-methyl-1H-indole] |  | 7.19
19 | COCC(c1nnc(-c2c(-n3ccnc3)c3cc(OC)c(Cl)c(F)c3n2C)[nH]1)n1ccnc1 (centres unmarked) [Example 100, 2-(5-(1-(1H-imidazol-1-yl)-2-methoxyethyl)-4H-1,2,4-triazol-3-yl)-6-chloro-7-fluoro-3-(1H-imidazol-1-yl)-5-methoxy-1-methyl-1H-indole] |  | 7.19
20 | CCOc1cc2c(-n3ccnc3)c(-c3nnc(C(C)=O)[nH]3)n(C)c2c(F)c1Cl [Example 101, 1-(5-(6-chloro-5-ethoxy-7-fluoro-3-(1H-imidazol-1-yl)-1-methyl-1H-indol-2-yl)-4H-1,2,4-triazol-3-yl)ethan-1-one] |  | 6.14
21 | COc1cc2c(-n3ccnc3)c(-c3nnc(C(C)=O)[nH]3)n(C)c2c(F)c1Cl [Example 102, 1-(5-(6-chloro-7-fluoro-3-(1H-imidazol-1-yl)-5-methoxy-1-methyl-1H-indol-2-yl)-4H-1,2,4-triazol-3-yl)ethan-1-one] |  | 6.97
22 | COc1cc2c(-n3ccnc3)c(-c3nnc(C(=O)N(C)C)[nH]3)n(C)c2c(C#N)c1Cl [Example 103, 5-(6-chloro-7-cyano-3-(1H-imidazol-1-yl)-5-methoxy-1-methyl-1H-indol-2-yl)-N,N-dimethyl-4H-1,2,4-triazole-3-carboxamide] |  | 6.77
23 | COc1cc2c(-n3ccnc3)c(-c3nnc(C(=O)N(C)C)[nH]3)n(C)c2c(F)c1F [Example 104, 5-(6,7-difluoro-3-(1H-imidazol-1-yl)-5-methoxy-1-methyl-1H-indol-2-yl)-N,N-dimethyl-4H-1,2,4-triazole-3-carboxamide] |  | 6.50
24 | FC(F)(F)c1nnc(-c2[nH]c3cc(Cl)c(Cl)cc3c2-n2ccnc2)[nH]1 [Example 105, 5,6-dichloro-3-(1H-imidazol-1-yl)-2-(5-(trifluoromethyl)-4H-1,2,4-triazol-3-yl)-1H-indole] |  | 6.25
25 | FC(F)(F)c1nnc(-c2[nH]c3c(Cl)c(Cl)ccc3c2-n2ccnc2)[nH]1 [Example 106, 6,7-dichloro-3-(1H-imidazol-1-yl)-2-(5-(trifluoromethyl)-4H-1,2,4-triazol-3-yl)-1H-indole] |  | 7.02
26 | COc1cc2c(-n3ccnc3)c(-c3nnc(C(F)(F)F)[nH]3)[nH]c2cc1Cl [Example 107, 6-chloro-3-(1H-imidazol-1-yl)-5-methoxy-2-(5-(trifluoromethyl)-4H-1,2,4-triazol-3-yl)-1H-indole] |  | 7.10
27 | Cn1c(-c2nnc(C(F)(F)F)[nH]2)c(-n2ccnc2)c2cc(Cl)c(Cl)cc21 [Example 108, 5,6-dichloro-3-(1H-imidazol-1-yl)-1-methyl-2-(5-(trifluoromethyl)-4H-1,2,4-triazol-3-yl)-1H-indole] |  | 6.55
28 | N#Cc1c(Cl)ccc2c(-n3ccnc3)c(-c3nnc(C(F)(F)F)[nH]3)[nH]c12 [Example 110, 6-chloro-3-(1H-imidazol-1-yl)-2-(5-(trifluoromethyl)-4H-1,2,4-triazol-3-yl)-1H-indole-7-carbonitrile] |  | 6.65
29 | Cn1c(-c2nnc(C(F)(F)F)[nH]2)c(-n2ccnc2)c2ccc(Cl)c(C#N)c21 [Example 111, 6-chloro-3-(1H-imidazol-1-yl)-1-methyl-2-(5-(trifluoromethyl)-4H-1,2,4-triazol-3-yl)-1H-indole-7-carbonitrile] |  | 6.70
30 | FC(F)Oc1cc2c(-n3ccnc3)c(-c3nnc(C(F)(F)F)[nH]3)[nH]c2cc1Cl [Example 112, 6-chloro-5-(difluoromethoxy)-3-(1H-imidazol-1-yl)-2-(5-(trifluoromethyl)-4H-1,2,4-triazol-3-yl)-1H-indole] |  | 6.18
31 | COc1cc2c(-n3ccnc3)c(-c3nnc(C(F)(F)F)[nH]3)n(C)c2cc1Cl [Example 114, 6-chloro-3-(1H-imidazol-1-yl)-5-methoxy-1-methyl-2-(5-(trifluoromethyl)-4H-1,2,4-triazol-3-yl)-1H-indole] |  | 6.85
32 | COc1cc2c(-n3ccnc3)c(-c3nnc(C(=O)N(C)C)[nH]3)n(C)c2cc1Cl [Example 116, 5-(6-chloro-3-(1H-imidazol-1-yl)-5-methoxy-1-methyl-1H-indol-2-yl)-N,N-dimethyl-4H-1,2,4-triazole-3-carboxamide] |  | 6.99
